Measured values as given in publication PMC12430429, “Synthesis, Structure, DNA/BSA Binding, DNA Cleaving, Cytotoxic and SOD Mimetic Activities of Copper(II) Complexes Derived from Methoxybenzylamine Schiff Base Ligands” (Molecules, 2025).
Like-named read-outs stand apart in the source and are kept apart here.

Assays:
[1] = SOD mimetic activity / radical scavenging assay (INT method); assay type: biochemical
Protocol: The radical scavenging ability with respect to the SOD mimetic activity of the prepared complexes was determined by the INT method. This method is based on a competitive reaction with the superoxide anion radical from KO2 between the measured compound (complex) and 2-(4-Iodophenyl)-3-(4-nitrophenyl)-5-phenyl-2H-tetrazolium chloride (INT). INT reacts with the single electron of O2^− and produces blue-green formazane detected as light absorption at 500 nm. Complexes with good antiradical activity also react with O2^−, and as a result of this, less formazane is formed.
The first type of antiradical activity measurements involved the determination of inhibition percent values of electron transfer on INT at specific concentrations (Table 9). Two concentrations were selected to achieve good solubility of the complexes (4 and 1 mM for 4a and 4c, 2 and 1 mM for 4b). The complex 4b dissolved readily at a concentration of 4 mM, but the mixture was very dark, making measurements at 500 nm difficult. Therefore, a less concentrated initial solution was used (2 mM) as the higher concentration. In total, 0.5 mL of the initial solutions was used to prepare sample solutions that also contained INT and KO2 solutions and DMSO with an overall volume of 3.5 mL. The resulting concentrations were c1 = 0.572 mM, c1* = 0.286 mM and c2 = 0.143 mM, respectively. Complexes 4a and 4c once again provided high percentages at c1 (approximately 96–99%) but the activity dropped below 24% at c2, while complex 4b maintained mediocre activity at both concentrations. It seems that the concentration increase had only a small effect on the activity of 4b; something similar was also observed in the DNA cleavage study for complex 4b. The complexes were compared with the model compound cystamine, which was used as a standard for superoxide antiradical scavenging due to the presence of a free […] group, which is also present in glutathione.
To improve the comparability of SOD mimetic activity, IC50 concentrations were determined by performing a series of measurements with decreasing concentration. IC50 values were calculated from the trend function equation as the concentration with 50% inhibition of electron transfer on INT (Table 10).
The method is based on the agent 2-(4-Iodophenyl)-3-(4-nitrophenyl)-5-phenyl-2H-tetrazolium chloride (INT), able to scavenge a superoxide radical anion from KO2. The reaction produces a blue-green formazane, which is detected as light absorption at 500 nm. The radical scavengers (measured complexes) compete with INT for radicals and reduce the formation of formazane and light absorption at 500 nm. Antiradical activity was measured on a Synergy HT BioTek spectrophotometer. DMSO was used as the solvent for the complex and KO2 (saturated solution). The INT initial solution (4 M) was prepared in a sodium tetraborate buffer solution with pH adjusted to 7.1 with HCl.
For each measurement, an initial solution of the sample (0.5 mL) of a specific concentration (4–0.1 mM) was prepared in DMSO. Due to the addition of INT (0.5 mL) and KO2 (0.5 mL) solutions and additional DMSO (2 mL), the concentrations of the measured complexes decreased seven times (3.5 mL of total mixture). Each result was the average value of three parallel measurements expressed with a standard deviation (more information in the Supplementary Materials). For the determination of SOD-IC50, several measurements with decreasing sample concentration were performed. […] A linear trend function of the percentage of inhibition and negative logarithm of concentration was used to calculate the SOD-IC50 value as the concentration with 50% inhibition of INT–formazane formation. […]
Green: 5c 5 mM (S. cerevisiae 1x10^9 cells /ml + 0.5 ml 0.9% NaCl + 0.5 ml 5c + 0.1 ml Resazurin OX) measured in time
S6. SOD Mimetic A ctivity A ssay
For each measurement, an initial solution of the sample of a specific concentration was prepared […]

HepG2 cells = experiment: MTT cytotoxicity assay, HepG2; assay type: cell-based, human; details: 72 h
Protocol: (§1) The cytotoxicity study of the prepared copper(II) complexes was performed using the MTT assay on human cell lines—A549 (adenocarcinoma human alveolar basal epithelial cell line), HepG2 (human liver cancer cell line) and HEL (human lung fibroblast cell line, normal cells).
(§2) The cytotoxicity of the prepared copper(II) complexes in human cell lines was evaluated using the 3-(4,5-dimethylthiazol-2-yl)-2,5-diphenyltetrazolium bromide (MTT) assay following the protocol by Mosmann. Briefly, A549 (human lung epithelial cells, carcinoma), HepG2 (human liver epithelial cells, carcinoma) and HEL (human lung fibroblast cells, normal) cells were seeded in plastic 96-well plates at a density of 1.5–2 × 10^4 cells per well. […] After the treatment, the samples were washed with phosphate-buffered saline (PBS), followed by 4 h of incubation with 1 mg/mL of MTT. Subsequently, the MTT solution was removed, and the formed formazane solids were dissolved in dimethyl sulfoxide for 30 min. The photometric evaluation (at 540 nm and 690 nm) was carried out using an xMark™ Microplate Absorbance Spectrophotometer (Bio-Rad, Hercules, CA, USA) [88].
(§3) A549 (ATCC® CCL-185), HepG2 (ATCC® HB-8065) and HEL299 (ATCC® CCL-137) cells were obtained from Lambda Life (Bratislava, Slovakia). A549 cells were kept in Dulbecco’s Modified Eagle’s Medium (DMEM) supplemented with 10% fetal bovine serum (FBS) and 1% antibiotics (penicillin and streptomycin). HepG2 cells were kept in Williams medium supplemented with 10% fetal bovine serum (FBS) and 1% antibiotics (penicillin and streptomycin). HEL299 cells were kept in Minimum Essential Medium (MEM) supplemented with 10% fetal bovine serum (FBS), 1% antibiotics (penicillin and streptomycin) and 1% non-essential amino acids (NEAA). The cells were cultured in a humidified atmosphere of 5% CO2 at 37 °C. Once the cells reached approximately 80% confluence, they were harvested and subcultured after trypsin treatment.

[2] = test system: HEL cells (human lung fibroblast, normal); experiment: MTT cytotoxicity assay, HEL; assay type: cell-based; details: 72 h
Protocol: as §1, §2, §3

A549 cells = experiment: MTT cytotoxicity assay, A549; assay type: cell-based, human; details: 72 h
Protocol: as §1, §2, §3

| SMILES | IC50 ([1]; 50% inhibition of electron transfer on INT, read-out: SOD-IC50) | IC50 ([1]; INT method, read-out: concentration of 50% inhibition (SOD-IC50), given as range) | Activity at c1 (%), inhibition of radical transfer to INT ([1]; c1 = 0.572 mM) | Activity at c2 (%), inhibition of radical transfer to INT ([1]; c2 = 0.143 mM) | IC50 (HepG2 cells) | IC50 [2] | IC50 (A549 cells) |
| --- | --- | --- | --- | --- | --- | --- | --- |
| NCCSSCCN [cystamine, reference compound] | 1700 ± 100 µM | > 1000 µM | 22.1 ± 1.8% | 2.0 ± 0.0% | – | – | – |
| N.N.[Cl][Pt][Cl] [cisplatin, reference compound] | – | – | – | – | 16 ± 3.4 µM | 68.4 ± 0.3 µM | 26.2 ± 4.1 µM |
